{
  "source": "patent US6468258B1",
  "about": "“Plastic compositions including vitamin E for medical containers and methods for providing such compositions and containers” (Baxter International Inc., priority 1997, dated 2002)",
  "origin": "cited, not measured here",
  "tested_on": "red blood cells",
  "details": "Vitamin E added directly to red blood cells; as reported in U.S. Pat. No. 5,037,419",
  "data": [
    {"substance": "Vitamin E", "values": [
      {"measurement": "hemolysis", "result": "lower hemolysis"}
    ]}
  ]
}
